Biological target: T1, MYD88 (Homo sapiens, UniProt Q99836)
T1 construct: endogenous in cells
Experiment: isoTOP-ABPP and TMT-ABPP cysteine engagement, MYD88
Assay type: binding
Protocol: Activated or expanded T cells were re-suspended in RPMI media supplemented with 10% FBS, L-glutamine (2 mM), penicillin (100 U/mL), and streptomycin (100 μg/mL) at 2×10^6 cells/mL. The compounds were added to cells as 1000×DMSO stocks and mixed well with the media by pipetting up and down after addition. The cells were kept at 37° C. in 5% CO2 containing incubators for 3 h (or otherwise specified times), then pelleted by centrifugation (524 g, 5 min, 4° C.), washed with cold PBS (10 mL) and transferred to Eppendorf tubes (1 mL PBS). The cells were pelleted again (524 g, 5 min, 4° C.), flash-frozen, and kept at −80° C. until further analysis.
Activated or expanded primary human T cells were re-suspended in RPMI (1×10^6 cells/mL) containing 10% fetal bovine serum (FBS), penicillin (100 U/mL), streptomycin ([…]), and L-glutamine (2 mM). The cells were treated with DMSO or compounds for 3 h, pelleted (524 g, 5 min), washed with PBS, and lysed by sonication (2×8 pulses). Soluble and particulate proteomic fractions were separated by ultracentrifugation (100,000 g, 45 min), and protein concentration was normalized to 1.7 mg/mL using a standard DC protein assay (Bio-Rad). The resulting proteomes were analyzed by competitive isotopic Tandem Orthogonal Proteolysis Activity-Based Protein Profiling (isoTOP-ABPP). […]
The heavy/light isoTOP-ABPP ratios (R values) for each unique peptide (DMSO/compound treated) were quantified with in-house CIMAGE software (Weerapana et al., 2010) using default parameters (3 MS1 acquisitions per peak and signal to noise threshold set to 2.5). Site-specific engagement of cysteine residues was assessed by blockade of IA-alkyne probe labeling. […] Ratios for unique peptide sequences were calculated for each experiment; overlapping peptides with the same modified cysteine (e.g., different charge states, elution times or tryptic termini) were grouped together and the median ratio was reported as the final ratio (R). […]

T1 sequence (Q99836 whole entry): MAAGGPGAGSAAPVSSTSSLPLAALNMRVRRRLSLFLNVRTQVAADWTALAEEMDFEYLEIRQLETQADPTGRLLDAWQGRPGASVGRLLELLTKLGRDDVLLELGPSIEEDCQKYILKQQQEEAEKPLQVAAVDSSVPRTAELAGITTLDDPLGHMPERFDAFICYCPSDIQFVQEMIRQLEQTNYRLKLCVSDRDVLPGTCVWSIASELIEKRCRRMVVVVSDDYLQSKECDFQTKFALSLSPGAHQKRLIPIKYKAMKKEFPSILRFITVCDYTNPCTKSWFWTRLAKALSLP

C=CC(=O)N(Cc1cccc(Cl)n1)c1ccc(C(=O)Nc2ccccc2)nc1 [BPK-25]
labeling of C203 of MYD88: direct labeling of C203

From patent publication US20240131032A1, “AN ACTIVITY-GUIDED MAP OF ELECTROPHILE-CYSTEINE INTERACTIONS IN PRIMARY HUMAN IMMUNE CELLS” (The Scripps Research Institute, priority 2019, published 2024)
